The molecules below were run against human factor Xa (FXa) (Homo sapiens, UniProt P00742) (assay: Factor Xa inhibition, fluorogenic assay). Details: fluorogenic substrate Boc-Ile-Glu-Gly-Arg-AMC, human FXa 1.3 nmol/l, pH 7.4, 22° C.
Format: biochemical
Protocol: The enzymatic activity of human factor Xa (FXa) is measured using the conversion of a fluorogenic substrate specific for FXa. FXa cleaves aminomethylcoumarin, whose fluorescence is measured, from the peptidic substrate. The determinations are carried out in microtitre plates.
Substances to be tested, in various concentrations, are dissolved in dimethyl sulphoxide and incubated for 15 min at 22° C. with human FXa (1.3 nmol/l dissolved in 50 mmol/l of Tris buffer [C,C,C-tris(hydroxymethyl)aminomethane], 100 mmol/l NaCl, 0.1% BSA [bovine serum albumin], pH 7.4). The fluorogenic substrate (5 μmol/l of Boc-Ile-Glu-Gly-Arg-AMC from Bachem) is then added. After an incubation time of 30 min, the sample is excited at a wavelength of 360 nm, and the emission at 460 nm is measured. The measured emissions of the test batches with test substance are compared to the control batches without test substance (only dimethyl sulphoxide instead of test substance in dimethyl sulphoxide), and IC50 values are calculated from the concentration/activity relationships.

human factor Xa (FXa), sequence (P00742 235-488 limits assumed): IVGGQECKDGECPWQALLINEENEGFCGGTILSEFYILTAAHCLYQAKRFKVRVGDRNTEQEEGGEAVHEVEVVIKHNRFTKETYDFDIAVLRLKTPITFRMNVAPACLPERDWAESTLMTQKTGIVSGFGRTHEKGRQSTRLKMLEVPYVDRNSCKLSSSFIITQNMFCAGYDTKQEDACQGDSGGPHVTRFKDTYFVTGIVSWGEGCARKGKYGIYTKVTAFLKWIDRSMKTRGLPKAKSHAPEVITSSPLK
human factor Xa (FXa), sequence (P00742 41-179 partner limits assumed): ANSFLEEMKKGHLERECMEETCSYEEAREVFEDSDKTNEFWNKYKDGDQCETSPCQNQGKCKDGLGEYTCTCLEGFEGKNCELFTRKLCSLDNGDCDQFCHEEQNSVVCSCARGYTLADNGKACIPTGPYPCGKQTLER

IC50	SMILES
0.9 nM	O=C(NC[C@H]1CN(c2ccc(N3CCOCC3=O)cc2F)C(=O)O1)c1ccc(Cl)s1 [Example 1, 5-Chloro-N-({(5S)-3-[2-fluoro-4-(3-oxomorpholin-4-yl)phenyl]-2-oxo-1,3-oxazolidin-5-yl}methyl)thiophene-2-carboxamide]
2.2 nM	O=C(NC[C@H]1CN(c2ccc(N3CCCCC3=O)cc2F)C(=O)O1)c1ccc(Cl)s1 [Example 11, 5-Chloro-N-({(5S)-3-[2-fluoro-4-(2-oxopiperidin-1-yl)phenyl]-2-oxo-1,3-oxazolidin-5-yl}methyl)thiophene-2-carboxamide]
1.8 nM	O=C(NC[C@H]1CN(c2ccc(N3CCOCC3=O)cc2Cl)C(=O)O1)c1ccc(Cl)s1 [Example 12, 5-Chloro-N-({(5S)-3-[2-chloro-4-(3-oxomorpholin-4-yl)phenyl]-2-oxo-1,3-oxazolidin-5-yl}methyl)thiophene-2-carboxamide]
0.9 nM	O=C(NC[C@H]1CN(c2ccc(-n3cccc(CO)c3=O)cc2F)C(=O)O1)c1ccc(Cl)s1 [Example 22, 5-Chloro-N-{[(5S)-3-{2-fluoro-4-[3-(hydroxymethyl)-2-oxopyridin-1(2H)-yl]phenyl}-2-oxo-1,3-oxazolidin-5-yl]methyl}thiophene-2-carboxamide]
